Literature values in US20120135104A1, “Enhanced Absorption of Omega Fatty Acid Oils” (priority 2010, published 2012).

Settings: single emulsifier

HLB value: about 15
Substance: polyoxyethylene sorbitan monooleate
